According to US20130288989A1, “NEW USE OF CHEMICAL INGREDIENTS IN CYNOMORIUM AS PHYTOESTROGEN” (TIANJIN UNIVERSITY OF TRADITIONAL CHINESE MEDICINE, priority 2010, published 2013):

These compounds were tested against T1, ERα (Homo sapiens, UniProt P03372) (assay: ERα luciferase reporter gene transcription activation in transfected Hela cells). Details: Hela cells, 10^−6 M, 24 h.
T1 construct: expressed in transfected cells; host or cells: Hela cells (ER expression free)
T1 sequence (P03372 1-595): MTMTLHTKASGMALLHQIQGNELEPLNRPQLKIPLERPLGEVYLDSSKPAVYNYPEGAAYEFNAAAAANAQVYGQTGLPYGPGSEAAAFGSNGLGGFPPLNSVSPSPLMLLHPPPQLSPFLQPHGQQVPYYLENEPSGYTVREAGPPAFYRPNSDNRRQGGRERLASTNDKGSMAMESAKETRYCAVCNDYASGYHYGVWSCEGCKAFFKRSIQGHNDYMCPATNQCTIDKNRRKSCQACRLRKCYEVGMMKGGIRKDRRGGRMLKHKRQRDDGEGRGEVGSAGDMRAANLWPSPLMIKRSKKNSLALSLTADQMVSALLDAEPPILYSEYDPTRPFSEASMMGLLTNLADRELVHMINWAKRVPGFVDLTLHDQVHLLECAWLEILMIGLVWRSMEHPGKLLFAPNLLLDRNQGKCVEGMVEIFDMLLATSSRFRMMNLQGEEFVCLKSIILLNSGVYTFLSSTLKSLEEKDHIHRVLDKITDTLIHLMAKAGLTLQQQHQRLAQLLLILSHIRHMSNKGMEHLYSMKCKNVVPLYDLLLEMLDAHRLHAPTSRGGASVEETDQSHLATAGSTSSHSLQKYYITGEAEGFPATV
Format: cell-based
Excerpt: (§1) Actually, estrogens show their biological activity by regulating estrogen responding genetic transcription.
(§2) Formulation of sample solutions of catechin, (−)epicatechin-3-O-gallate, naringenin-4′-O-glucoside, phlorizin, emodin, chrysophanol (separately obtained from Example 1):
(§3) Catechin, (−)epicatechin-3-O-gallate, naringenin-4′-O-glucoside, phlorizin, emodin, chrysophanol in corresponding weights were separately weighed precisely, than added with DMSO for dissolution, the corresponding sample solution high dose groups (10 μM or 1 μM), were diluted in certain times to separately obtain low dose groups (1 μM to 0.001 μM).
(§4) Under condition of 37° C. and 5% CO2, Hela cells were cultured in phenol red-free high sugar DMEM culture medium containing 10% calf serum in incubator, the cells were spread in 60% density on 96-well plate when cell density was about 90%, each well was added with 150 ul of phenol red-free DMEM culture medium containing 10% serum, cultivation was performed overnight. To each well of the 96-well plate, 100 ul of serum-free DMEM culture medium and 0.4 μg plasmid (ptk-ERE-luc 2 μg, tk-Renila 1 μg, ERα or ERβ 1 μg) were used for transfection. After 6 h of transfection, each well was added with 150 ul of serum-free phenol red-free DMEM culture medium. Three wells were selected form each group, added with 10^−8M estradiol E2, and substance to be tested in different concentrations, 15 ul/well (sample 4-5 concentration gradient groups), continuously cultured under condition of 37° C., 5% CO2 for 24 h. After 24 h, each well was added with 80 μl of cell disruption solution, and the cells were subjected to freeze thawing once to be sufficiently disrupted. As for the cell lysis solution of each well, its activities to firefly luciferase and Renila luciferase were separately measured.

Question: With `Cc1cc(O)c2c(c1)C(=O)c1cccc(O)c1C2=O` [Chrysophanol, chrysophanol] as the compound, how does the “ERα (% of the control) mean ± S.D.” value read?
Answer: 122.89 ± 8.94 % of the control

Same assay, conditions: Hela cells, 10^−6 M, estradiol at 10^−8M

Question: Which “ERα (% of estradiol)” value does the source give for `Cc1cc(O)c2c(c1)C(=O)c1cccc(O)c1C2=O` [Chrysophanol, chrysophanol] here?
Answer: (51.51) % of estradiol

Same assay, conditions: Hela cells, 10^−7 M, 24 h

Question: With `Cc1cc(O)c2c(c1)C(=O)c1cccc(O)c1C2=O` [Chrysophanol, chrysophanol] as the compound, how does the “ERα (% of the control) mean ± S.D.” value read?
Answer: 97.77 ± 8.47 % of the control

Same assay, conditions: Hela cells, 10^−7 M, estradiol at 10^−8M

Question: With `Cc1cc(O)c2c(c1)C(=O)c1cccc(O)c1C2=O` [Chrysophanol, chrysophanol] as the compound, how does the “ERα (% of estradiol)” value read?
Answer: (40.98) % of estradiol

Same assay, conditions: Hela cells, 10^−8 M, 24 h

Question: `Cc1cc(O)c2c(c1)C(=O)c1cccc(O)c1C2=O` [Chrysophanol, chrysophanol] was tested. Which “ERα (% of the control) mean ± S.D.” value did it give?
Answer: 80.15 ± 13.88 % of the control

Same assay, conditions: Hela cells, 10^−8 M, estradiol at 10^−8M

Question: `Cc1cc(O)c2c(c1)C(=O)c1cccc(O)c1C2=O` [Chrysophanol, chrysophanol] was tested. Which “ERα (% of estradiol)” value did it give?
Answer: (33.59) % of estradiol

Same assay, conditions: Hela cells, 10^−9 M, 24 h

Question: Which “ERα (% of the control) mean ± S.D.” value does the source give for `Cc1cc(O)c2c(c1)C(=O)c1cccc(O)c1C2=O` [Chrysophanol, chrysophanol] here?
Answer: 84.53 ± 14.21 % of the control

Same assay, conditions: Hela cells, 10^−9 M, estradiol at 10^−8M

Question: With `Cc1cc(O)c2c(c1)C(=O)c1cccc(O)c1C2=O` [Chrysophanol, chrysophanol] as the compound, how does the “ERα (% of estradiol)” value read?
Answer: (35.43) % of estradiol

The compounds below were run on estrogen receptor (assay: Estrogen receptor activation test: overall estrogen activity and ERβ versus ERα comparison). Details: Hela cells, sample 10^−6 M.
Format: cell-based
Procedure: as §1, §4

Question: With `Cc1cc(O)c2c(c1)C(=O)c1cccc(O)c1C2=O` [Chrysophanol, chrysophanol] as the compound, how does the “ERβ/ERα (both % of estradiol at 10^−8M)” value read?
Answer: 1.19

Same assay, conditions: Hela cells, sample 10^−7 M

Question: For `Cc1cc(O)c2c(c1)C(=O)c1cccc(O)c1C2=O` [Chrysophanol, chrysophanol], which “ERβ/ERα (both % of estradiol at 10^−8M)” value is on record?
Answer: 1.03

Same assay, conditions: Hela cells, sample 10^−8 M

Question: `Cc1cc(O)c2c(c1)C(=O)c1cccc(O)c1C2=O` [Chrysophanol, chrysophanol] was tested. Which “ERβ/ERα (both % of estradiol at 10^−8M)” value did it give?
Answer: 1.16

Same assay, conditions: Hela cells, sample 10^−9 M

Question: How did the “ERβ/ERα (both % of estradiol at 10^−8M)” value turn out when `Cc1cc(O)c2c(c1)C(=O)c1cccc(O)c1C2=O` [Chrysophanol, chrysophanol] was run?
Answer: 1.25

Each compound was assayed against T2, ERβ (Homo sapiens, UniProt Q92731) (assay: ERβ luciferase reporter gene transcription activation in transfected Hela cells). Details: Hela cells, 10^−6 M, 24 h.
T2 construct: expressed in transfected cells; host or cells: Hela cells (ER expression free)
T2 sequence (Q92731 whole entry): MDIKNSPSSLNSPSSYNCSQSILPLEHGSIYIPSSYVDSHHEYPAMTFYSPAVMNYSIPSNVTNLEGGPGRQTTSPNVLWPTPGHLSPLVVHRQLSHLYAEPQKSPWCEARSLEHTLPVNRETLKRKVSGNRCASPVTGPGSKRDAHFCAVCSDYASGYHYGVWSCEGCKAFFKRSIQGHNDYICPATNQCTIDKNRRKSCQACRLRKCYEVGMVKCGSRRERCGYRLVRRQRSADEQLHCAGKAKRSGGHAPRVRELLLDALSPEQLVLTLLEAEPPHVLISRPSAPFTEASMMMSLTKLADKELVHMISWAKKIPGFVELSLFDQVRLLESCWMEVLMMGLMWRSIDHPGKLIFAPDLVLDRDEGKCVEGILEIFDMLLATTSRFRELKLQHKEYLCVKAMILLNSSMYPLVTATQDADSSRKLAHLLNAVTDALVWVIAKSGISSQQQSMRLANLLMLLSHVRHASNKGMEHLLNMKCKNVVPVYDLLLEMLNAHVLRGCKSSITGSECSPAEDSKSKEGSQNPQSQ
Format: cell-based
Excerpt: as §1, §2, §3, §4

Question: For `Cc1cc(O)c2c(c1)C(=O)c1cccc(O)c1C2=O` [Chrysophanol, chrysophanol], which “ERβ (% of the control) mean ± S.D.” value is on record?
Answer: 120.43 ± 12.98 % of the control

Same assay, conditions: Hela cells, 10^−6 M, estradiol at 10^−8M

Question: Which “ERβ (% of estradiol)” value does the source give for `Cc1cc(O)c2c(c1)C(=O)c1cccc(O)c1C2=O` [Chrysophanol, chrysophanol] here?
Answer: (61.26) % of estradiol

Same assay, conditions: Hela cells, 10^−7 M, 24 h

Question: With `Cc1cc(O)c2c(c1)C(=O)c1cccc(O)c1C2=O` [Chrysophanol, chrysophanol] as the compound, how does the “ERβ (% of the control) mean ± S.D.” value read?
Answer: 83.12 ± 4.78 % of the control

Same assay, conditions: Hela cells, 10^−7 M, estradiol at 10^−8M

Question: With `Cc1cc(O)c2c(c1)C(=O)c1cccc(O)c1C2=O` [Chrysophanol, chrysophanol] as the compound, how does the “ERβ (% of estradiol)” value read?
Answer: (42.28) % of estradiol

Same assay, conditions: Hela cells, 10^−8 M, 24 h

Question: Which “ERβ (% of the control) mean ± S.D.” value does the source give for `Cc1cc(O)c2c(c1)C(=O)c1cccc(O)c1C2=O` [Chrysophanol, chrysophanol] here?
Answer: 76.85 ± 8.82 % of the control

Same assay, conditions: Hela cells, 10^−8 M, estradiol at 10^−8M

Question: With `Cc1cc(O)c2c(c1)C(=O)c1cccc(O)c1C2=O` [Chrysophanol, chrysophanol] as the compound, how does the “ERβ (% of estradiol)” value read?
Answer: (39.09) % of estradiol

Same assay, conditions: Hela cells, 10^−9 M, 24 h

Question: How did the “ERβ (% of the control) mean ± S.D.” value turn out when `Cc1cc(O)c2c(c1)C(=O)c1cccc(O)c1C2=O` [Chrysophanol, chrysophanol] was run?
Answer: 86.99 ± 23.16 % of the control

Same assay, conditions: Hela cells, 10^−9 M, estradiol at 10^−8M

Question: With `Cc1cc(O)c2c(c1)C(=O)c1cccc(O)c1C2=O` [Chrysophanol, chrysophanol] as the compound, how does the “ERβ (% of estradiol)” value read?
Answer: (44.25) % of estradiol
